{"source": "paper PMC8780785", "about": "(Molecules, 2022)", "key": {"S. aureus ATCC 25923": {"test_system": "S. aureus ATCC 25923", "assay": "MIC and MBC determination (CLSI protocol), S. aureus", "format": "cell-based", "settings": "Staphylococcus aureus, ATCC25923, read-out: MBC S. aureus", "method": "(§1) The stock solutions (10 mg/mL) of the tested substances were prepared in distilled water and afterwards diluted to the appropriate concentration in Mueller–Hinton Bullion. In each well of a 96-well plate, 300 µL of the mixture was inoculated with 10 µL of the bacterial culture (final density~10^2 cfu/mL). […] Then, 10 µL of the suspension from each well was transferred to a fresh sterile medium and incubated for another 24 h at 37 °C. The lack of turbidity indicated bactericidal activity of the investigated substances and the MBC value was thus determined."}, "DPPH assay (antioxidant)": {"assay": "DPPH assay (antioxidant)", "settings": "concentration reducing 50% of radicals", "method": "DPPH assay: […] Then, 100 µL of the tested dye was added to a 96-well plate containing 100 µL of a freshly prepared DPPH solution in 95% ethanol. […] The mixture was incubated at room temperature for 20 min. The change in absorbance caused by the tested dyes (XP) and ultrapure water as a negative control (XC) was monitored at 515 nm using a multiplate reader (Spark, Tecan, Austria). Simultaneously, the absorbance of the dye at a wavelength of 515 nm was investigated as a control of the dye–colour correction (XD). The radical reduction rate (DR) was calculated according to the following equation: DR(%)=(XC−(XP−XD)/XC)×100% All analyses allowing determination of antioxidative properties were performed in triplicate in room temperature 22 ± 3 °C. […] Trolox was used as positive controls for each technique."}, "[1]": {"assay": "Cyclic voltammetry of the ANS substrate", "format": "physicochemical", "settings": "1 mM substrate, 0.1 M sodium tartrate buffer pH 4.5", "method": "All measurements were performed for the 1 mM substrate dissolved in 0.1 M sodium tartrate buffer at pH 4.5 in triplicate at room temperature 22 ± 3 °C. The potential was scanned with the scan speed of 50 mV/s from −400 to 1500 mV vs. Ag/AgCl/KClsat after holding the electrochemical system at the initial potential for 10 s."}, "[2]": {"assay": "Antioxidative potential over the three methods (ABTS, DPPH, luminol)", "settings": "range depending on the method used", "method": "Chemiluminescence Assay: The assay of the antioxidant properties of the tested dyes was based on the measurement of luminol chemiluminescence induced by hydroxyl radicals in the Fe^2+-EDTA-H2O2-luminol system. […] Afterwards, the samples were placed in a Berthold–Lumat LB 9506 luminometer, and the solutions of reagents were added automatically as follows: 1.5 mM Fe^2+-EDTA (100 µL) and 4.4 mM H2O2 (100 µL). The chemiluminescence was measured with (I1) or without (I0) the addition of the tested dye. The inhibitory rate (IR) was calculated according to the following equation: IR(%)=(1−I1/Io)×100 DPPH assay: […] […] The change in absorbance caused by the tested dyes (XP) and ultrapure water as a negative control (XC) was monitored at 515 nm using a multiplate reader (Spark, Tecan, Austria). Simultaneously, the absorbance of the dye at a wavelength of 515 nm was investigated as a control of the dye–colour correction (XD). The radical reduction rate (DR) was calculated according to the following equation: DR(%)=(XC−(XP−XD)/XC)×100% ABTS assay: In this method, the ability of the tested dye to reduce the dark green ABTS radical cation (ABTS^●+) was evaluated. […] Next, the ABTS^●+ solution was diluted with PBS to an absorbance of 0.7 at 734 nm measured using a Tecan plate reader (Spark, Tecan, Austria). […]"}, "[3]": {"test_system": "human normal colon fibroblast cell line CCD-18Co", "assay": "Cytotoxicity, MTT assay, fibroblasts", "format": "cell-based", "settings": "24 h, read-out: IC50 Fibroblasts MTT", "method": "(§2) Cell cultures: The research was conducted on human normal colon epithelial cell line CCD-841 CoTr (ACCT, No. CRL-1807) and human normal colon fibroblast cell line CCD-18Co (ATCC, No. CRL-1459) obtained from the American Type Culture Collection (ATCC, Manassas, VA, USA). The cells were grown in a mixture of DMEM and RPMI 1640 media (1:1) containing 10% (v/v) of foetal bovine serum (FBS) and antibiotics (100 U/mL penicillin and 100 μg/mL streptomycin) and kept in standard conditions (at 37 °C in humidified atmosphere of 5% CO2). For the MTT and LDH tests, cells at the density of 1 × 10^5 cells /mL were seeded on 96-well plates. […] MTT assay: This method is used to determine cell viability and proliferation. […] Then, to stop the reaction and dissolve the formazan crystals, 100 µL of a 10 % SDS solution in 0.01 N HCL was added. The following day, the absorbance was determined spectrophotometrically at 570 nm using a microplate reader (Spark, Tecan, Austria). Results obtained from three independent experiments were reported as cell viability (%) calculated according to the formula: cell viability (%) = (100 − Abssample × Abscontrol^−1) × 100% All analyses were performed in triplicate and presented as mean ± SD. The IC50 value was calculated by nonlinear regression using a curve fitting program in GraphPad Prism 5.0."}, "[4]": {"test_system": "human normal colon epithelial cell line CCD-841 CoTr", "assay": "Cytotoxicity, MTT assay, colon epithelial cells", "format": "cell-based", "settings": "CCD-841, 24 h, read-out: IC50 Colon Epithelial Cells MTT", "method": "as §2"}, "ABTS assay (antioxidant)": {"assay": "ABTS assay (antioxidant)", "settings": "concentration reducing 50% of radicals", "method": "ABTS assay: In this method, the ability of the tested dye to reduce the dark green ABTS radical cation (ABTS^●+) was evaluated. First, 5 mM phosphate buffer pH 7.4 (PBS) and 7.4 mM ABTS solution were prepared. During the ABTS solution preparation, ABTS was dissolved and ABTS^●+ was generated by reacting with K2S2O8 (2.4 mM final concentration) in a dark bottle at room temperature for 16–18 h. Next, the ABTS^●+ solution was diluted with PBS to an absorbance of 0.7 at 734 nm measured using a Tecan plate reader (Spark, Tecan, Austria). ABTS^●+ (990 µL) was added to the tested dye sample (10 µL) in a 96-well plate and incubated for 10 min at room temperature. The tested dye concentration was in the range from 0.01 to 1 mg/mL. Simultaneously, the negative control (XC) and the control of dye colour correction (XD) were incubated. The change in the absorbance of ABTS^●+ with the dye sample (XP) and controls were measured in the plate reader at 734 nm and the ABTS^●+ reduction rate (AR) was calculated according to the following equation: AR=(XC−(XP−XD)/XC)×100% All analyses allowing determination of antioxidative properties were performed in triplicate in room temperature 22 ± 3 °C. […] Trolox was used as positive controls for each technique."}, "Vibrio fisheri": {"test_system": "Vibrio fisheri", "assay": "Environmental toxicity, 81.9% Basic Test Microtox protocol", "format": "cell-based", "settings": "5 min", "from_the_text": "Toxicity was expressed as half maximal effective concentration (EC50) according to the 81.9% Basic Test Microtox protocol. All reagents and Vibrio […] bacterium were purchased from […]), the Polish representative of Modern Water Company (New Castle, DE, USA)."}, "laccase (LAC)": {"test_system": "laccase (LAC)", "settings": "read-out: KM (Michaelis–Menten constant); 0.1 M sodium-tartrate buffer pH 4, 440 nm, Lineweaver–Burk", "from_the_text": "The reaction mixture was scanned to determine the λ max cha-racterizing the main reaction product od dye using a Cary 50 Bio spectrophotometer (Varian, Palo Alto, CA, USA)."}, "[5]": {"test_system": "human normal colon fibroblast cell line CCD-18Co", "assay": "Cytotoxicity, LDH assay, fibroblasts", "format": "cell-based", "settings": "after 24 h", "method": "(§3) Cell cultures: The research was conducted on human normal colon epithelial cell line CCD-841 CoTr (ACCT, No. CRL-1807) and human normal colon fibroblast cell line CCD-18Co (ATCC, No. CRL-1459) obtained from the American Type Culture Collection (ATCC, Manassas, VA, USA). The cells were grown in a mixture of DMEM and RPMI 1640 media (1:1) containing 10% (v/v) of foetal bovine serum (FBS) and antibiotics (100 U/mL penicillin and 100 μg/mL streptomycin) and kept in standard conditions (at 37 °C in humidified atmosphere of 5% CO2). For the MTT and LDH tests, cells at the density of 1 × 10^5 cells /mL were seeded on 96-well plates. […] Lactate dehydrogenase(LDH) assay: This assay measures lactate dehydrogenase (LDH) released to the medium by cells with a damaged plasma membrane. […] Absorbance was recorded on a microplate reader (Spark, Tecan, Austria) at 490 nm with a reference wavelength at 690 nm. Results obtained from three independent experiments were reported as cell viability (%) calculated according to the formula: cell viability (%) = (100 − Abssample × Abscontrol^−1) × 100% All analyses were performed in triplicate and presented as mean ± SD. The IC50 value was calculated by nonlinear regression using a curve fitting program in GraphPad Prism 5.0."}, "[6]": {"test_system": "human normal colon epithelial cell line CCD-841 CoTr", "assay": "Cytotoxicity, LDH assay, colon epithelial cells", "format": "cell-based", "settings": "after 24 h", "method": "as §3"}, "[7]": {"assay": "Cytotoxicity regardless of assay method and cells used", "format": "cell-based", "settings": "human; regardless of the toxicity assay method and the cells used; read-out: IC50 (cytotoxicity), lowest value", "experimental": "For the MTT and LDH tests, cells at the density of 1 × 10^5 cells /mL were seeded on 96-well plates. After 24 h incubation, the medium was replaced with a fresh one with 2% of FBS supplemented with ANS or not (control).\nMTT assay: This method is used to determine cell viability and proliferation. It is based on the measurement of the oxidoreductive activity of mitochondria with the yellow dye 3-(4,5-dimethylthiazo-2-yl)-2,5-diphenyl-tetrazolium bromide (MTT) which is metabolised in living cells to purple formazan crystals. After 24 h incubation with the examined compounds, 25 µL of MTT (5 mg/mL) was introduced onto each well and incubated for 3 h. Then, to stop the reaction and dissolve the formazan crystals, 100 µL of a 10 % SDS solution in 0.01 N HCL was added. The following day, the absorbance was determined spectrophotometrically at 570 nm using a microplate reader (Spark, Tecan, Austria).\nResults obtained from three independent experiments were reported as cell viability (%) calculated according to the formula: cell viability (%) = (100 − Abssample × Abscontrol^−1) × 100% […]"}, "[8]": {"assay": "Chemiluminescence assay (luminol, antioxidant)", "settings": "concentration reducing 50% of radicals", "method": "Chemiluminescence Assay: The assay of the antioxidant properties of the tested dyes was based on the measurement of luminol chemiluminescence induced by hydroxyl radicals in the Fe^2+-EDTA-H2O2-luminol system. […] Afterwards, the samples were placed in a Berthold–Lumat LB 9506 luminometer, and the solutions of reagents were added automatically as follows: 1.5 mM Fe^2+-EDTA (100 µL) and 4.4 mM H2O2 (100 µL). The chemiluminescence was measured with (I1) or without (I0) the addition of the tested dye. The inhibitory rate (IR) was calculated according to the following equation: IR(%)=(1−I1/Io)×100 All analyses allowing determination of antioxidative properties were performed in triplicate in room temperature 22 ± 3 °C. […] Trolox was used as positive controls for each technique."}, "[9]": {"test_system": "S. epidermidis ATCC 14990", "assay": "MIC and MBC determination (CLSI protocol), S. epidermidis", "format": "cell-based", "settings": "Staphylococcus epidermidis, ATCC14990, read-out: MBC S. epidermidis", "method": "as §1"}}}
{"smiles": "O=S(=O)(O)c1cccc2cccc(Nc3ccccc3)c12", "note": "[ANS, 8-anilino-1-naphthalenesulfonic acid]", "values": [{"measurement": "MBC", "setting": "S. aureus ATCC 25923", "value": 400, "unit": "µg/mL"}, {"measurement": "IC50 DPPH", "setting": "DPPH assay (antioxidant)", "value": 153, "unit": "µg/mL"}, {"measurement": "Eo vs. NHE (oxidation potential)", "setting": "[1]", "value": 0.768, "unit": "V"}, {"measurement": "IC50 values (antioxidative potential)", "setting": "[2]", "value": "0.027 to 153", "unit": "µg/mL"}, {"measurement": "IC50", "setting": "[3]", "value": 295, "unit": "µg/mL"}, {"measurement": "IC50", "setting": "[4]", "value": 322, "unit": "µg/mL"}, {"measurement": "IC50 ABTS", "setting": "ABTS assay (antioxidant)", "value": 0.027, "unit": "µg/mL"}, {"measurement": "EC50", "setting": "Vibrio fisheri", "value": 19, "unit": "µg/mL"}, {"measurement": "Km", "setting": "laccase (LAC)", "value": 435, "unit": "µM"}, {"measurement": "IC50", "setting": "[5]", "value": 247, "unit": "µg/mL"}, {"measurement": "IC50", "setting": "[6]", "value": 382, "unit": "µg/mL"}, {"measurement": "IC50 at 24 h", "setting": "[7]", "value": "≥ 247", "unit": "µg/mL"}, {"measurement": "IC50 Luminol", "setting": "[8]", "value": 6, "unit": "µg/mL"}, {"measurement": "MBC", "setting": "[9]", "value": 400, "unit": "µg/mL"}]}
